Reference: patent US9593149B2, “Amylin and calcitonin receptor agonist” (Novo Nordisk A/S, priority 2014, dated 2017)
pEC50, pIC50: −log10 of the molar value. Converted amounts (≈) assume the structure as drawn. Numbered stars: 1 amine (or outer) side, 2 acyl side, 3 side chain; on linkers, the order of the positions; unused ones are H or OH. Side chains are listed from the residue outwards. Peptide text beside a SMILES is read from it. * marks the point of attachment. C20 diacid = O=C(O)CCCCCCCCCCCCCCCCCCC(=O)*; C18 diacid = O=C(O)CCCCCCCCCCCCCCCCC(=O)*; γGlu = O=C(O)[C@H](CCC(=O)[*:2])N[*:1]

Key:
[1] = Assay (IV) determination of solubility; assay type: physicochemical
Protocol: Assay (IV)—Determination of Solubility
The mimylin peptide was dissolved in water at ˜500 nmol/ml and mixed 1:1 with a series of buffers (100 mM glycylglycine pH 3.0, 100 mM glycylglycine pH 4.0, 100 mM glycylglycine pH 5.0, 100 mM bistrispropane pH 6.0, 100 mM bistrispropane pH 6.5, 100 mM bistrispropane pH 7.0, 100 mM bistrispropane pH 7.5, 100 mM bistrispropane pH 8.0).

[2] = biological target: T1, human calcitonin (a) receptor, BHK570 cells (Homo sapiens, UniProt P30988); assay: Assay (II)b functional CRE-luciferase assay without albumin, human calcitonin receptor; assay type: cell-based; conditions: Tested without HSA; read-out: hCTR funct. EC50
T1 construct: host or cells: BHK570
T1 sequence (P30988 25-474): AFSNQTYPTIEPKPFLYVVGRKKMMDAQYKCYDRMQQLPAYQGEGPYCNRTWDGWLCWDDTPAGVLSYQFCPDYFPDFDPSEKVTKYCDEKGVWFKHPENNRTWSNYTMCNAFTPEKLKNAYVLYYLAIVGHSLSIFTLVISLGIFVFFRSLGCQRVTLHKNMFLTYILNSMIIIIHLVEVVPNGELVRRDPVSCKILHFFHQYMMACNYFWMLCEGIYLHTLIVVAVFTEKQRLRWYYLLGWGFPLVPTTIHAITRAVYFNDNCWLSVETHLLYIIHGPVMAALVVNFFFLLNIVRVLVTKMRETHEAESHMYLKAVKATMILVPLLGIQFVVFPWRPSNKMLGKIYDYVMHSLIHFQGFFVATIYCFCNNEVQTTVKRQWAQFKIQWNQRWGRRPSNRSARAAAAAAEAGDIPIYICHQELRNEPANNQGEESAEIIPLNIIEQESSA
Outline: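 BHK570 cells stably expressing human calcitonin receptor with CRE-luciferase reporter, plus RAMP-3 for the amylin 3(a) line. Cells stimulated 3 hours at 37 °C in albumin-free assay medium (0.1% ovalbumin, 10 mM Hepes pH 7.4); cAMP-driven luciferase read by luminescence.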

[3] = biological target: T2, human amylin receptor (human calcitonin receptor + human RAMP3), BHK tk'ts 13 cells (Homo sapiens, UniProt O60896+P30988); assay: Assay (Va) binding to the human amylin receptor (whole cell); conditions: read-out: hAmylin-R binding IC50
T2 construct: expressed in transfected cells; host or cells: BHK tk'ts 13
T2 sequence (O60896 24-148, one chain of several): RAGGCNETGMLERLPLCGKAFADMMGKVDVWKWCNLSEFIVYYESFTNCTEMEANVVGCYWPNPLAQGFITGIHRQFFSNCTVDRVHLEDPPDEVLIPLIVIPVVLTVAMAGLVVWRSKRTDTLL
Protocol: The day before the assay the cells were Seeded into Poly-D-Lysin coated 384W Opaque White, BD BioCoat plates (10000 cells/well) and Incubated overnight at 37° C., 5% CO2, 95% humidity.

[4] = biological target: T1, human calcitonin (a) receptor, BHK570 cells; assay: Assay (II)a functional CRE-luciferase assay with albumin, human calcitonin receptor; assay type: cell-based; conditions: Tested with HSA; read-out: hCTR funct. EC50
Outline: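 BHK570 cells stably carry a CRE-luciferase reporter and the calcitonin receptor; co-transfected RAMP-3 gives the amylin 3(a) receptor line. Cells were treated for 3 h at 37 °C in DMEM with 10% FBS and 10 mM Hepes, pH 7.4. cAMP-driven luciferase was read by LucLite luminescence after 30 min at RT.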

Solubility ([1]; pH 3.0) | Solubility ([1]; pH 4.0) | Solubility ([1]; pH 5.0) | Solubility ([1]; pH 6.0) | Solubility ([1]; pH 6.5) | Solubility ([1]; pH 7.0) | Solubility ([1]; pH 7.5) | Solubility ([1]; pH 8.0) | pEC50 [2] | pIC50 [3] | solubility at 18 h ([1]; bistrispropane buffer, pH 6.5) | solubility at 18 h ([1]; bistrispropane buffer, pH 7.5) | solubility at 18 h ([1]; bistrispropane buffer, pH 6.0) | solubility at 18 h ([1]; bistrispropane buffer, pH 7.0) | solubility at 18 h ([1]; bistrispropane buffer, pH 8.0) | solubility at 18 h ([1]; glycylglycine buffer, pH 3.0) | solubility at 18 h ([1]; glycylglycine buffer, pH 4.0) | solubility at 18 h ([1]; glycylglycine buffer, pH 5.0) | pEC50 [4] | Compound
≧200 μM | ≧200 μM | ≧200 μM | ≧200 μM | ≧200 μM | ≧200 μM | ≧200 μM | ≧200 μM | – | – | – | – | – | – | – | – | – | – | – | CC(C)C[C@H](NC(=O)[C@H](C)NC(=O)[C@H](C)NC(=O)[C@@H](NC(=O)[C@H](CO)NC(=O)[C@H](CC(C)C)NC(=O)[C@H](CCC(=O)O)NC(=O)[C@H](CO)NC(=O)[C@H](C)NC(=O)[C@H](CCC(=O)O)NC(=O)CCCCCCCCCCCCCCCCC(=O)O)[C@@H](C)O)C(=O)NCC(=O)N[C@@H](CCCNC(=N)N)C(=O)N[C@@H](CC(C)C)C(=O)N[C@@H](CO)C(=O)N[C@@H](C)C(=O)N[C@@H](CCC(=O)O)C(=O)N[C@@H](CC(C)C)C(=O)N[C@@H](Cc1cnc[nH]1)C(=O)N[C@@H](CCC(=O)O)C(=O)N[C@@H](CC(C)C)C(=O)N[C@@H](C)C(=O)N[C@H](C(=O)N[C@@H](CC(C)C)C(=O)N1CCC[C@H]1C(=O)N[C@@H](CCCNC(=N)N)C(=O)N[C@H](C(=O)N[C@@H](CCC(=O)O)C(=O)N[C@H](C(=O)NCC(=O)N1CCC[C@H]1C(=O)N[C@@H](CCC(=O)O)C(=O)N[C@@H](CO)C(=O)N1CCC[C@H]1C(N)=O)[C@@H](C)O)[C@@H](C)O)[C@@H](C)O [Ex. #2, [N-terminal(C18 diacid)]mimylin] ({C18 diacid}-EASELSTAALGRLSAELHELATLPRTETGPESP-NH2)
– | – | – | – | – | – | – | – | 10.66 | 8.91 | ≥ 200 µM | ≥ 200 µM | ≥ 200 µM | ≥ 200 µM | ≥ 200 µM | ≥ 200 µM | ≥ 200 µM | ≥ 200 µM | 10.29 | CC(C)C[C@H](NC(=O)[C@H](C)NC(=O)[C@H](C)NC(=O)[C@@H](NC(=O)[C@H](CO)NC(=O)[C@H](CC(C)C)NC(=O)[C@H](CCC(=O)O)NC(=O)[C@H](CO)NC(=O)[C@H](C)NC(=O)[C@H](C)NC(=O)CC[C@H](NC(=O)CCCCCCCCCCCCCCCCCCC(=O)O)C(=O)O)[C@@H](C)O)C(=O)NCC(=O)N[C@@H](CCCNC(=N)N)C(=O)N[C@@H](CC(C)C)C(=O)N[C@@H](CO)C(=O)N[C@@H](C)C(=O)N[C@@H](CCC(=O)O)C(=O)N[C@@H](CC(C)C)C(=O)N[C@@H](Cc1c[nH]cn1)C(=O)N[C@@H](CCC(=O)O)C(=O)N[C@@H](CC(C)C)C(=O)N[C@@H](C)C(=O)N[C@H](C(=O)N[C@@H](Cc1ccc(O)cc1)C(=O)N1CCC[C@H]1C(=O)N[C@@H](CCCNC(=N)N)C(=O)N[C@H](C(=O)N[C@@H](CCC(=O)O)C(=O)N[C@H](C(=O)NCC(=O)N[C@@H](CO)C(=O)NCC(=O)N[C@@H](CO)C(=O)N1CCC[C@H]1C(N)=O)[C@@H](C)O)[C@@H](C)O)[C@@H](C)O [compound 57, [N-terminal(C20 diacid-gGlu), 1A, 23Y, 30S, 31G]mimylin] ({C20 diacid-γGlu}-AASELSTAALGRLSAELHELATYPRTETGSGSP-NH2)
– | – | – | – | – | – | – | – | 10.35 | 7.64 | ≥ 200 µM | ≥ 200 µM | ≥ 200 µM | ≥ 200 µM | ≥ 200 µM | ≥ 200 µM | ≥ 200 µM | ≥ 200 µM | 10.66 | CC(C)C[C@H](NC(=O)[C@H](CCC(=O)O)NC(=O)[C@H](C)NC(=O)[C@@H](NC(=O)[C@H](CC(C)C)NC(=O)[C@H](CCCNC(=N)N)NC(=O)CNC(=O)[C@H](CC(C)C)NC(=O)[C@@H](NC(=O)[C@H](C)NC(=O)[C@@H](NC(=O)[C@@H](NC(=O)[C@H](CC(C)C)NC(=O)[C@H](CCC(=O)O)NC(=O)[C@H](CO)NC(=O)[C@H](C)NC(=O)CC[C@H](NC(=O)CCCCCCCCCCCCCCCCC(=O)O)C(=O)O)[C@@H](C)O)[C@@H](C)O)C(C)C)[C@@H](C)O)C(=O)N[C@@H](Cc1c[nH]cn1)C(=O)N[C@@H](CCC(=O)O)C(=O)N[C@@H](CC(C)C)C(=O)N[C@@H](CCC(=O)O)C(=O)N[C@H](C(=O)N[C@@H](CC(C)C)C(=O)N1CCC[C@H]1C(=O)N[C@@H](CCCNC(=N)N)C(=O)N[C@H](C(=O)N[C@@H](CCC(=O)O)C(=O)N[C@H](C(=O)NCC(=O)N[C@H](C(=O)NCC(=O)N[C@H](C(=O)N1CCC[C@H]1C(N)=O)[C@@H](C)O)[C@@H](C)O)[C@@H](C)O)[C@@H](C)O)[C@@H](C)O [compound 105, [N-terminal(C18 diacid-gGlu), des1, 6T, 9V, 14T, 21E, 30T, 31G, 32T]mimylin] ({C18 diacid-γGlu}-ASELTTAVLGRLTAELHELETLPRTETGTGTP-NH2)
– | – | – | – | – | – | – | – | – | 9.56 | ≥ 200 µM | ≥ 200 µM | ≥ 200 µM | ≥ 200 µM | ≥ 200 µM | ≥ 200 µM | 65 µM (≈ 257 µg/mL) | 7 µM (≈ 27.6 µg/mL) | 10.01 | CC(C)C[C@H](NC(=O)[C@H](CCCNC(=N)N)NC(=O)CNC(=O)[C@H](CC(C)C)NC(=O)[C@@H](NC(=O)[C@H](C)NC(=O)[C@@H](NC(=O)[C@H](CO)NC(=O)[C@H](CC(C)C)NC(=O)[C@H](CCC(=O)O)NC(=O)[C@H](CO)NC(=O)[C@H](C)NC(=O)CC[C@H](NC(=O)CCCCCCCCCCCCCCCCCCC(=O)O)C(=O)O)[C@@H](C)O)C(C)C)C(=O)N[C@@H](CO)C(=O)N[C@@H](CCC(N)=O)C(=O)N[C@@H](CCC(=O)O)C(=O)N[C@@H](CC(C)C)C(=O)N[C@@H](Cc1c[nH]cn1)C(=O)N[C@@H](CCC(=O)O)C(=O)N[C@@H](CC(C)C)C(=O)N[C@@H](CCC(N)=O)C(=O)N[C@H](C(=O)N[C@@H](Cc1ccc(O)cc1)C(=O)N1CCC[C@H]1C(=O)N[C@@H](CCCNC(=N)N)C(=O)N[C@H](C(=O)N[C@@H](CCC(=O)O)C(=O)N[C@H](C(=O)NCC(=O)N[C@@H](CO)C(=O)NCC(=O)N[C@H](C(=O)N[C@@H](Cc1ccc(O)cc1)C(N)=O)[C@@H](C)O)[C@@H](C)O)[C@@H](C)O)[C@@H](C)O [compound 114, [N-terminal(C20 diacid-gGlu), des1, 9V, 15Q, 21Q, 23Y, 30S, 31G, 32T, 33Y]mimylin]
– | – | – | – | – | – | – | – | 10.57 | – | ≥ 200 µM | ≥ 200 µM | ≥ 200 µM | ≥ 200 µM | ≥ 200 µM | ≥ 200 µM | ≥ 200 µM | ≥ 200 µM | 10.43 | CC(=O)N[C@@H](C)C(=O)N[C@@H](CO)C(=O)N[C@@H](CCCCNC(=O)CC[C@H](NC(=O)CCCCCCCCCCCCCCCCCCC(=O)O)C(=O)O)C(=O)N[C@@H](CC(C)C)C(=O)N[C@@H](CO)C(=O)N[C@H](C(=O)N[C@@H](C)C(=O)N[C@@H](C)C(=O)N[C@@H](CC(C)C)C(=O)NCC(=O)N[C@@H](CCCNC(=N)N)C(=O)N[C@@H](CC(C)C)C(=O)N[C@@H](CO)C(=O)N[C@@H](C)C(=O)N[C@@H](CCC(=O)O)C(=O)N[C@@H](CC(C)C)C(=O)N[C@@H](Cc1c[nH]cn1)C(=O)N[C@@H](CCC(=O)O)C(=O)N[C@@H](CC(C)C)C(=O)N[C@@H](C)C(=O)N[C@H](C(=O)N[C@@H](CC(C)C)C(=O)N1CCC[C@H]1C(=O)N[C@@H](CCCNC(=N)N)C(=O)N[C@H](C(=O)N[C@@H](CCC(=O)O)C(=O)N[C@H](C(=O)NCC(=O)N[C@@H](CO)C(=O)NCC(=O)N[C@@H](CO)C(=O)N1CCC[C@H]1C(N)=O)[C@@H](C)O)[C@@H](C)O)[C@@H](C)O)[C@@H](C)O [compound 68, [N-terminal(acetyl), des1, 4K(C20 diacid-gGlu), 30S, 31G]mimylin] (Ac-ASK([γGlu-C20 diacid])LSTAALGRLSAELHELATLPRTETGSGSP-NH2)
